Assays:
A-2780 xenografts = test: A-2780 ovarian cancer xenograft tumor growth inhibition in mice; type: in vivo, mouse; details: Compound A 10 mg/kg oral TID×21 alone
Procedure: (§1) Human tumor mouse xenografts are generated from early passages of the following ovarian cancer cell lines: A-2780 (National Cancer Institute), SK-OV-3x.luc (SK-OV-3 cell line modified to express luciferase (#1, medium expressing), Indiana University). A-2780 ovarian cancer cells are grown in RPMI 1640 with L-glutamine, 25 mM HEPES (Invitrogen 22400-089) supplemented with 1 mM pyruvate and 10% Certified Fetal Bovine Serum (Gibco 16000, FBS). SK-OV-3x.luc cells (ovarian cancer cells) are grown in McCoy's 5A Medium with L-glutamine (Invitrogen 16600-082) supplemented with non-essential amino acids, 1 mM pyruvate and 10% FBS. Harlan athymic nude mice (6-7 weeks old) are housed with ad libitum feed and water, and are acclimated for one week prior to subcutaneous xenograft implantation in the right rear flank with a defined number of cells. […] Compound A, 30 mg/kg, oral, TID×21/gemcitabine+cisplatin, 100+4 mg/kg, IP, QW×3* • *SK-OV-3x.luc study only Tumor volume and body weight are recorded and analyzed twice weekly using a data capture and analysis tool. Tumor volume (mm^3) is estimated by using the formula: ν=l×w^2×0.536 where l=larger of measured diameter and w=smaller of perpendicular diameter. Antitumor activity is calculated as a percent reduction of treated (T) tumor volume relative to untreated control (C) tumor volume [1−(T/C)]×100. […]

SK-OV-3x.luc xenografts = test: SK-OV-3x.luc ovarian cancer xenograft tumor growth inhibition in mice; type: in vivo, mouse
Procedure: as §1, with “cells. A-2780 or SK-OV-3x.luc implants consist of 0.1 mL of cells (2 or 5×10^6 cells, respectively) in serum-free media with 0.1 mL MATRIGEL® (BD Biosciences) for a final volume of 0.2 mL. Tumors are allowed to develop to a volume of 120-150 mm^3 and are then randomized into treatment groups to attain a consistent average tumor size across all groups. Each treatment group of the SK-OV-3x.luc study is 12 animals; each group of the A-2780 study is 20 animals. Compound A is prepared weekly in hydroxyethylcellulose (HEC) 1%/TWEEN® 80 0.25%/Antifoam 0.05% (HEC/TWEEN®) and stored at 4° C.” for “cells.”

## CC(C)(C)Cn1c(N)nc2ccc(-c3nc(C(C)(C)C)[nH]c3-c3ccc(F)cc3)nc21 [Compound A, 5-[2-tert-Butyl-5-(4-fluorophenyl)-1H-imidazol-4-yl]-3-(2,2-dimethylpropyl)imidazo[4,5-b]pyridin-2-amine dimethanesulfonate]
A-2780 xenografts
  Max % wt. loss: 3.0%
A-2780 xenografts; 3 weeks
  final tumor volume: 1828 ± 208 mm^3
SK-OV-3x.luc xenografts; Compound A 30 mg/kg oral TID×21 alone, SK-OV-3x.luc
  Max % wt. loss: 1.4%
SK-OV-3x.luc xenografts; Compound A 30 mg/kg oral TID×21 alone, SK-OV-3x.luc, 3 weeks
  final tumor volume: 522 ± 54 mm^3
SK-OV-3x.luc xenografts; Compound A alone, 3 weeks, SK-OV-3x.luc xenografts
  final average tumor volume compared with vehicle control: not significantly different from vehicle control
